ChEMBL document CHEMBL1140285, “Synthesis and ocular effects of imidazole nitrolic acids” (2005)
The source made the active and inactive calls. The calls are words filed in the database; no cut-off is given here.

Assays:
Oryctolagus cuniculus [1] = experiment: Maximal decrease in IOP observed with in 24 hours after intravitreal administration of the compound; NE is no effect on IOP; assay type: functional, organism-based
Oryctolagus cuniculus [2] = experiment: Increase in NOx concentration in porcineiris-ciliary body after administration of compound at the concentrations of 10 uM and 100 uM; control value is 0.36; NE is no effect on IOP; assay type: functional
Oryctolagus cuniculus [3] = experiment: Increase in nitrite concentration in porcineiris-ciliary body after administration of compound at the concentrations of 10 uM and 100 uM; control value is 0.15; NE is no effect on IOP; assay type: functional
Sus scrofa [4] = experiment: Increase in cGMP concentration in porcineiris-ciliary body after administration of compound at the concentrations of 10 uM; control value is 0.46
Sus scrofa [5] = experiment: Increase in cGMP concentration in porcineiris-ciliary body after administration of compound at the concentrations of 100 uM; control value is 0.46
Sus scrofa [6] = experiment: Increase in NOx concentration in porcineiris-ciliary body after administration of compound at the concentrations of 10 uM; control value is 0.36
Sus scrofa [7] = experiment: Increase in NOx concentration in porcineiris-ciliary body after administration of compound at the concentrations of 100 uM; control value is 0.36
Sus scrofa [8] = experiment: Increase in nitrite concentration in porcineiris-ciliary body after administration of compound at the concentrations of 10 uM; control value is 0.15
Sus scrofa [9] = experiment: Increase in nitrite concentration in porcineiris-ciliary body after administration of compound at the concentrations of 100 uM; control value is 0.15
Oryctolagus cuniculus [10] = experiment: Maximal decrease in IOP observed with in 24 hours after intravitreal administration of the compound;NE is no effect on IOP; assay type: functional, organism-based
Oryctolagus cuniculus [11] = experiment: Maximal decrease in IOP observed with in 24 hours after intravitreal administration of the compound; NE is no effect; assay type: functional, organism-based
Oryctolagus cuniculus [12] = experiment: Increase in NOx concentration in porcineiris-ciliary body after administration of compound at the concentrations of 10 uM and 100 uM; NE is no effect; assay type: functional
Oryctolagus cuniculus [13] = experiment: Increase in nitrite concentration in aqueous humor after topical administration of compound in rabbits; control value is 1.31; assay type: functional, Aqueous humor of eyeball
Oryctolagus cuniculus [14] = experiment: Increase in NOx concentration in plasma after topical administration of compound in rabbits; control value is 408.59; assay type: functional
Oryctolagus cuniculus [15] = experiment: Increase in nitrite concentration in plasma after topical administration of compound in rabbits; control value is 0.98; assay type: functional
Oryctolagus cuniculus [16] = experiment: Increase in NOx concentration in aqueous humor after topical administration of compound in rabbits; control value is 309.09; assay type: functional, Aqueous humor of eyeball
Oryctolagus cuniculus [17] = experiment: Increase in cGMP concentration in aqueous humor after topical administration of compound in rabbits; control value is 16.10; assay type: functional, Aqueous humor of eyeball
Oryctolagus cuniculus [18] = experiment: Increase in nitrite concentration in aqueous humor after intravitreal administration of compound in rabbits; control value is 2.40; assay type: functional, Aqueous humor of eyeball
Oryctolagus cuniculus [19] = experiment: Maximal decrease in IOP observed with in 24 hours after intravitreal administration of the compound at the concentration of 20 mM; assay type: functional
Oryctolagus cuniculus [20] = experiment: Increase in NOx concentration in plasma after intravitreal administration of compound in rabbits; control value is 408.59; assay type: functional
Oryctolagus cuniculus [21] = experiment: Increase in nitrite concentration in plasma after intravitreal administration of compound in rabbits; control value is 0.98; assay type: functional
Oryctolagus cuniculus [22] = experiment: Increase in cGMP concentration in aqueous humor after intravitreal administration of compound in rabbits; control value is 14.31; assay type: functional, Aqueous humor of eyeball
Oryctolagus cuniculus [23] = experiment: Increase in NOx concentration in porcineiris-ciliary body after administration of compound at the concentrations of 10 uM and 100 uM; control value is 0.36; assay type: functional
Oryctolagus cuniculus [24] = experiment: Increase in NOx concentration in aqueous humor after intravitreal administration of compound in rabbits; control value is 450.31; assay type: functional, Aqueous humor of eyeball
Oryctolagus cuniculus [25] = experiment: Increase in cGMP concentration in aqueous humor after intravitreal administration of compound in rabbits; control value is 9.17; assay type: functional, Aqueous humor of eyeball
Oryctolagus cuniculus [26] = experiment: Maximal decrease in IOP observed with […] after intravitreal administration of the compound at the concentration of 20 mM; assay type: functional
Oryctolagus cuniculus [27] = experiment: Increase in NOx concentration in aqueous humor after intravitreal administration of compound in rabbits; control value is 500.86; assay type: functional, Aqueous humor of eyeball
Oryctolagus cuniculus [28] = experiment: Increase in nitrite concentration in aqueous humor after intravitreal administration of compound in rabbits; control value is 1.32; assay type: functional, Aqueous humor of eyeball

| SMILES | Maximal decrease in IOP (Oryctolagus cuniculus [1]) | cGMP concentration (Sus scrofa [4]) | cGMP concentration (Sus scrofa [5]) | Increase in concentration (Sus scrofa [6]) | Increase in concentration (Sus scrofa [7]) | Increase in concentration (Sus scrofa [8]) | Increase in concentration (Sus scrofa [9]) | other results |
| --- | --- | --- | --- | --- | --- | --- | --- | --- |
| Cn1cncc1/C=N/O | No effect | 0.51 pmol/mg prot. | 0.58 pmol/mg prot. |  |  |  |  | Increase in concentration (Oryctolagus cuniculus [2]): No effect; Increase in concentration (Oryctolagus cuniculus [3]): No effect |
| Cl.O/N=C/c1cncn1Cc1ccccc1 |  | 0.58 pmol/mg prot. | 0.58 pmol/mg prot. | 1.97 µM | 2.21 µM |  |  |  |
| O/N=C/c1cncn1Cc1ccccc1 [listing 1 of 2 here] | No effect |  |  |  |  |  |  | Increase in concentration (Oryctolagus cuniculus [2]): No effect; Increase in concentration (Oryctolagus cuniculus [3]): No effect |
| Cn1cncc1/C(=N/O)[N+](=O)[O-] [listing 1 of 2 here] |  | 0.87 pmol/mg prot. | 1.19 pmol/mg prot. | 3.38 µM | 29.96 µM | 3.46 µM | 32.07 µM |  |
| O=Cc1cncn1Cc1ccccc1 | No effect | 0.3 pmol/mg prot. | 0.38 pmol/mg prot. |  |  |  |  | Increase in concentration (Oryctolagus cuniculus [2]): No effect; Increase in concentration (Oryctolagus cuniculus [3]): No effect |
| Cc1[nH]cnc1/C(=N/O)[N+](=O)[O-] |  | 0.6 pmol/mg prot. | 1.22 pmol/mg prot. | 3.06 µM | 30.62 µM | 3.62 µM | 31.22 µM | Maximal decrease in IOP (Oryctolagus cuniculus [10]): No effect |
| O=[N+]([O-])/C(=N\O)c1ncc[nH]1 |  |  |  |  |  |  |  | Maximal decrease in IOP (Oryctolagus cuniculus [11]): inactive; Increase in concentration (Oryctolagus cuniculus [12]): inactive |
| O=[N+]([O-])/C(=N\O)c1cncn1Cc1ccccc1 | No effect | 0.46 pmol/mg prot. | 3.29 pmol/mg prot. | 2.01 µM | 24.6 µM | 2.15 µM | 24.44 µM | Increase in concentration (Oryctolagus cuniculus [13]): 1.61 µM; Increase in concentration (Oryctolagus cuniculus [14]): 379.43 µM; Increase in concentration (Oryctolagus cuniculus [15]): 0.87 µM; Increase in concentration (Oryctolagus cuniculus [16]): 302.19 µM; Increase in concentration (Oryctolagus cuniculus [17]): 16.79 pmol/mg prot. |
| O/N=C/c1cncn1Cc1ccccc1 [listing 2 of 2 here] |  | 0.3 pmol/mg prot. |  |  |  |  |  |  |
| O=[N+]([O-])/C(=N\O)c1c[nH]c(-c2ccccc2)n1 | No effect |  |  |  |  |  |  |  |
| Cn1cncc1/C(=N/O)[N+](=O)[O-] [listing 2 of 2 here] | No effect |  |  |  |  |  |  |  |
| Cn1cncc1C=O | No effect | 0.38 pmol/mg prot. | 0.5 pmol/mg prot. | 0.63 µM | 0.09 µM | 0.34 µM | 0.62 µM |  |
| O=[N+]([O-])/C(=N\O)c1c[nH]cn1 |  | 0.51 pmol/mg prot. | 0.55 pmol/mg prot. |  |  | 0.18 µM | 0.18 µM | Increase in concentration (Oryctolagus cuniculus [18]): 2.49 µM; Maximal decrease in IOP (Oryctolagus cuniculus [19]): -7.3 mmHg; Increase in concentration (Oryctolagus cuniculus [20]): 469.42 µM; Increase in concentration (Oryctolagus cuniculus [21]): 1.38 µM; Increase in concentration (Oryctolagus cuniculus [22]): 21.77 pmol/mg prot.; Increase in concentration (Oryctolagus cuniculus [23]): No effect; Increase in concentration (Oryctolagus cuniculus [24]): 451.94 µM |
| Cn1cncc1/C(=N/O)[N+](=O)[O-].O=[N+]([O-])O |  | 1.01 pmol/mg prot. | 2.76 pmol/mg prot. | 4.87 µM | 51.95 µM | 2.68 µM | 28.05 µM | Increase in concentration (Oryctolagus cuniculus [25]): 9.41 pmol/mg prot.; Maximal decrease in IOP (Oryctolagus cuniculus [26]): -4 mmHg; Increase in concentration (Oryctolagus cuniculus [20]): 425.49 µM; Increase in concentration (Oryctolagus cuniculus [21]): 0.75 µM; Increase in concentration (Oryctolagus cuniculus [27]): 524.29 µM; Increase in concentration (Oryctolagus cuniculus [28]): 10.32 µM |
